Reference: patent publication US20250000979A1, “TRIPLET-TRIPLET ENERGY TRANSFER WITH LIGHT EXCITATION AT LONG WAVELENGTHS AND METHODS THEREOF” (priority 2023, published 2025)
Values joined by “and” are separate entries in the source; they are usually repeats but may differ in a detail not shown here. Identical values can stand only once. Marks after values point to notes of the source that are not given here.

Legend:
[1] = Photoreaction quantum yields and cross sections (HPLC, Reinecke's salt actinometry); assay type: physicochemical
Description: Quantum yields of the photoreactions (Φ) are defined as:
The number of reacted molecules (e.g., consumption of prodrugs or generation of free drugs) were determined by HPLC. The absorbed photon number was determined by Reinecke's salt actinometry at excitation wavelengths of 530 nm and 690 nm^35, 36. The power densities were 50 mW/cm^2 (530 nm) and 100 mW/cm^2 (690 nm).

[2] = Photolysis of BODIPY prodrugs in solution, analysed by HPLC; assay type: physicochemical
Description: BODIPY photocage was conjugated with the free drug molecules to form photoactivable prodrugs with photolabile linkages, including ester and carbamate. The light illumination was performed with a NIR lamp, of which the parameters were 100 mW/cm^2, 690 nm for 5 min, in a N2-saturated solution containing 0.1 equiv. of Os(bptpy)2^2+ and 1 equiv. of prodrugs. […] In addition, the photocage was conjugated with drug molecules with amine groups to produce prodrugs with photolabile carbamate bonds.
The photolysis efficiency of BODIPY prodrugs were compared in different conditions, including different excitation wavelengths (690 nm or 530 nm), different ratios of Os(bptpy)2^2+, and different oxygen contents. […] The solvent was 88% methanol mixed by 10% dichloromethane and 2% acetone. For the N2-saturated groups, after dissolving the molecules, the solution was degassed with a vacuum pump for 10 min followed by gentle N2 blowing. After light irradiation, the resulted mixtures were refilled to 100 μL with methanol to avoid the error caused by solvent evaporation. The resulted solution was loaded onto the sampler and analyzed by high-performance liquid chromatography. An elution method was used to separate free drug, BODIPY photocage and prodrug on the C18 column.

[3] = In vivo biodistribution by IVIS fluorescence imaging; design: species or system BALB/c nude mice; settings: intravenous, DiR 100 μg/kg, HeLa tumor-bearing mice
Source text: The tumors and major organs were excised for ex vivo fluorescence imaging 24-h post injection. […] It should be noted that the prodrug can be selectively activated in tumors by NIR light while those nanoparticles in the normal tissues and organs will not be activated, which can alleviate the side effects of chemotherapy.
BALB/c nude mice (female, 4 weeks, 15-20 g) were obtained from the Experimental Animal Center of University with access to food and water ad libitum. The animal experiment and procedures were approved by the Committee on the Use of Live Animals in Teaching & Research (CULATR), The University of Hong Kong. (Protocol No. 4381-17).
HeLa tumor-bearing mice was obtained by subcutaneously injecting HeLa cells for tumor implantation. HeLa cancer cells were collected by cell culture and trypsin digestion. The cells were washed by PBS and resuspended in DMEM medium without serum, in which collagen and Matrigel were added. 2×10^6 cells were dispersed in 100 μL mixture, which was subcutaneously injected into the mice at underarm area. […]
The biodistribution of free drug or nanoparticles in the HeLa tumor-bearing mice was measured by an in vivo fluorescence imaging system. […] The in vivo fluorescence imaging was performed at 1, 2, 8 and 24 h post injection and anesthesia at each time point. […]

[4] = Encapsulation efficiency and loading capacity of Os/BC NP (HPLC); assay type: physicochemical; settings: component of Os/BC NP
Description: Flash nanoprecipitation method was used to fabricate the photosensitizer/prodrug-loading nanoparticles. […] Different formulations (Os NPs, BC NPs and Os/BC NPs) were then prepared with optimized ratios of components. Briefly, 224 μL of the mixed stock solution was added into 1.8 mL N2-saturated water under vortexing. The resulted solutions were added to dialysis bags (MW: 3400 Da) and dialyzed against 4 L of water for 24 h. The water out of dialysis bag was renewed every 8 h. The resulted solution of NPs was collected and filtrated with 220 nm filter. Finally, the NPs solutions were concentrated by ultrafiltration (Mw=100 kDa, 2000×g, 10 min) and stored at 4° C. until use. The concentrations of each component were measured by using HPLC. Loading capacity and encapsulation efficiency were calculated as follow: […]

[5] = red-light irradiation (625 nm), platinum photosensitizer PtTPBP; ref 17 / US2021/0228719; cited from earlier work
[6] = in toluene, calculated by TD-DFT, referred to previous studies; cited from earlier work
[7] = Photophysical properties (UV-Vis absorption, emission, energy levels); assay type: physicochemical
Source text: The absorption peak at about 492 nm is identified as the singlet metal-to-ligand charge transfer (^1MLCT) absorption, also termed as singlet-singlet (S-S) absorption. […] The two twistable bromophenyl groups of the bromophenyl terpyridine ligands extend the S-T absorption from 650 nm to 750 nm with increased absorption coefficient.
CombiFlash Rf chromatography instrument was purchased from Teledyne ISCO (Lincoln, USA) for chemical purification. Light sources used in this study were purchased from Yuanming Laser (Ningbo, China) and Mightex (CA, USA). The purity verification and photolysis study were conducted with a high-performance liquid chromatography (HPLC) system (Agilent technologies, 1260), attached with C-18 columns which were obtained from Agilent (Santa Clara, California, United States). Nuclear magnetic resonance (NMR) spectroscopy was collected by Bruker AVANCE III HD 500 spectrometer (MA, US). Fluorescence, phosphorescence and UV-vis spectra were collected by a SpectraMax M4 microplate reader (Molecular Devices, CA, US). The particle size and surface charge were recorded by a dynamic light scattering (DLS) device, Zetasizer Nano-ZS90 (Malvern instruments, UK). Transmission electron microscope (TEM) imaging was conducted on a Hitachi HT7700 TEM (Tokyo, Japan). ACEA NovoCyte Quanteon flow cytometer (ACEA Biosciences, CA, USA) was used for flow cytometry. In vivo and ex vivo imaging of the mice were conducted with an In Vivo Imaging System (PerkinElmer, USA). Devices for animal study like including balance and vernier caliper were kindly provided by The Centre for Comparative Medicine Research (CCMR), The University of Hong Kong.

[8] = λex 690 nm, 0.1 eq Os, N2, ε of Os(bptpy)2·2PF6 at 688 nm
[9] = 690 nm, 100 mW/cm^2, 5 min, 0.1 equiv. Os(bptpy)2^2+, N2-saturated solution

| Compound | Quantum yield of drug release Φr ([1]; λex 690 nm, 0.1 eq Os, N2) [%] | Quantum yield of prodrug photolysis Φp ([1]; λex 690 nm, 0.1 eq Os, N2) [%] | Cross section Φpε(λex) [1, 8] [M⁻¹ cm⁻¹] | Cross section Φrε(λex) [1, 8] [M⁻¹ cm⁻¹] | photolytic yield (yield of free drug) [2, 9] [%] | other results |
| --- | --- | --- | --- | --- | --- | --- |
| CC1=C(I)C(C)=[N+]2C1=C(COC(=O)/C=C/c1cccc(OCc3ccccc3)c1)c1c(C)c(I)c(C)n1[B-]2(C)C [BODIPY-BCA, BODIPY-benzyloxycinnamic acid] | 0.75 ± 0.03 | 0.80 ± 0.02 | 213.33 ± 7.55 | 200.64 ± 7.30 | 87.12±3.17 |  |
| CC1=C(I)C(C)=[N+]2C1=C(COC(=O)Cc1cccc3c(=O)c4ccc(C)c(C)c4oc13)c1c(C)c(I)c(C)n1[B-]2(C)C [BODIPY-DMXAA, BODIPY-vadimezan] | 0.71 ± 0.06 | 0.87 ± 0.01 | 230.30 ± 1.43 | 190.05 ± 16.63 | 82.52±7.22 | prodrug decomposition [2, 9]: completely consumed |
| CC1=C(I)C(C)=[N+]2C1=C(COC(=O)NCCc1ccc(O)c(O)c1)c1c(C)c(I)c(C)n1[B-]2(C)C [BODIPY-DPA, BODIPY-dopamine] | 0.60 ± 0.02 | 0.86 ± 0.01 | 228.90 ± 3.59 | 159.00 ± 4.58 | 69.04±1.99 |  |
| COc1ccc(CCNC(=O)OCC2=C3C(C)=C(I)C(C)=[N+]3[B-](C)(C)n3c(C)c(I)c(C)c32)cc1OC [BODIPY-HVA, BODIPY-homoveratrylamine] | 0.64 ± 0.03 | 0.85 ± 0.04 | 224.98 ± 9.83 | 170.82 ± 9.14 | 74.17±3.97 |  |
| CC1=C(I)C(C)=[N+]2C1=C(COC(=O)C(C)c1ccc(CC(C)C)cc1)c1c(C)c(I)c(C)n1[B-]2(C)C (centres unmarked) [BODIPY-IBF, BODIPY-ibuprofen] | 0.42 ± 0.04 | 0.85 ± 0.04 | 226.34 ± 10.96 | 111.67 ± 10.81 | 48.49±4.69 |  |
| COc1ccc2c(c1)c(CC(=O)OCC1=C3C(C)=C(I)C(C)=[N+]3[B-](C)(C)n3c(C)c(I)c(C)c31)c(C)n2C(=O)c1ccc(Cl)cc1 [BODIPY-IDM, BODIPY-indomethacin] | 0.60 ± 0.04 | 0.86 ± 0.02 | 229.15 ± 5.23 | 158.79 ± 10.80 | 68.95±4.69 |  |
| CCCCN(C(=O)OCC1=C2C(C)=C(I)C(C)=[N+]2[B-](C)(C)n2c(C)c(I)c(C)c21)c1ccc(C(=O)OCCN(C)C)cc1 [BODIPY-TCI, BODIPY-tetracaine] | 0.36 ± 0.04 | 0.81 ± 0.06 | 215.84 ± 15.71 | 95.21 ± 10.62 | 41.34±4.61 |  |
| CC1=C(I)C(C)=[N+]2C1=C(COC(=O)NCCc1ccc(O)cc1)c1c(C)c(I)c(C)n1[B-]2(C)C [BODIPY-TyrA, BODIPY-tyramine] | 0.40 ± 0.02 | 0.84 ± 0.02 | 223.12 ± 6.28 | 107.25 ± 5.46 | 46.57±2.37 |  |
| CCCCCCCCCCCCCCCCCCN1C(=CC=CC=CC=CC2=[N+](CCCCCCCCCCCCCCCCCC)c3ccccc3C2(C)C)C(C)(C)c2ccccc21.[I-] [DiR, 1,1′-dioctadecyl-3,3,3′,3′-tetramethylindotricarbocyanine iodide] |  |  |  |  |  | time within which the free dye was completely metabolized [3]: ≤ 8 h |
| BODIPY-chlorambucil [BODIPY-Cb] | 0.73 ± 0.04 | 0.84 ± 0.01 | 222.80 ± 2.90 |  | 84.17±4.21 | Loading Capacity [4]: 0.27%; Cross section Φpε(λex) ([1]; λex 530 nm, Air): 2292.95 ± 730.79 M⁻¹ cm⁻¹; Cross section Φrε(λex) ([1]; λex 530 nm, Air): 171.63 ± 24.81 M⁻¹ cm⁻¹; Quantum yield of prodrug photolysis Φp ([1]; λex 530 nm, Air): 3.42 ± 1.09%; Cross section Φpε(λex) ([1]; λex 530 nm, N2): 16017.11 ± 2044.88 M⁻¹ cm⁻¹; Cross section Φrε(λex) ([1]; λex 530 nm, N2): 6016.62 ± 1895.28 M⁻¹ cm⁻¹; Quantum yield of drug release Φr ([1]; λex 530 nm, N2): 6.73 ± 2.12%; Quantum yield of prodrug photolysis Φp ([1]; λex 530 nm, N2): 23.89 ± 3.05%; Cross section Φpε(λex) ([1]; λex 690 nm, 0.1 eq Os, Air): 1.87 ± 1.11 M⁻¹ cm⁻¹; Cross section Φrε(λex) ([1]; λex 690 nm, 0.1 eq Os, Air): 0.49 ± 0.11 M⁻¹ cm⁻¹; max. yield of free Cb, one-photon upconversion-like photolysis [5]: 41.74%; Energy level S1 state [6]: 2.18 eV and 2.18^f eV; Energy level T1 state [6]: 1.52 eV and 1.52^g eV; T1 lifetime [6]: 21.82^e μs; photocleavage in air-saturated solution ([2]; 530 nm green light, air-saturated): retarded; decomposition of prodrug and generation of free Cb in air-saturated solution ([2]; 690 nm, with Os(bptpy)2^2+, air-saturated): mostly retarded; E (absorption coefficient at λabs, max) ([7]; at 543 nm): 89400 M⁻¹ cm⁻¹; λabs, max ([7]; dichloromethane solution with 2% acetone, 10 μM): 543 nm; λem, max ([7]; λex = 543 nm): 570^b nm |
